Measurements published in paper PMC9447987, “Long-term memory CD8^+ T cells specific for SARS-CoV-2 in individuals who received the BNT162b2 mRNA vaccine” (Nature Communications, 2022).
Where two headings read alike, the source gives them in different places.

What was measured:
[1] = tested on: HLA-A*24:02-restricted CD8+ T cells; type: cell-based, human; conditions: for Freq of responder (%): of 17 vaccinated HLA-A*24:02+ individuals (Fig. 4b); for Resp: number of responders (individuals with epitope-specific CD8+ T cells): of 17 vaccinated HLA-A*24:02+ individuals, 1 μM peptide
[2] = molecular target: HLA-A*24:02 (Homo sapiens, UniProt P04439, D101N/D140Y/D185E/E176V/E190D/F33S/G103R/G107R/I119L/I121M/I306V/K335N/L105A/L180Q/L300P/N151K/N90K/Q86E/Q94H/R106L/R138H/R89G/T104I/T345S/V100E/W191G/Y123F); experiment: HLA stabilization assay using RMA-S-A2402 cells; type: binding; conditions: for MFI, HLA-A2402 (APC), representative staining: RMA-S-A2402 cells
[3] = convalescent donor C2, 45.290 weeks since PCR-confirmed diagnosis, peptide-pulsed C1R-A2402
[4] = convalescent donor C3, 2.430 weeks since PCR-confirmed diagnosis, peptide-pulsed C1R-A2402
[5] = convalescent donor C4, 35.000 weeks since PCR-confirmed diagnosis, peptide-pulsed C1R-A2402
[6] = convalescent donor C5, 41.430 weeks since PCR-confirmed diagnosis, peptide-pulsed C1R-A2402
[7] = convalescent donor C6, 20.000 weeks since PCR-confirmed diagnosis, peptide-pulsed C1R-A2402
[8] = convalescent donor C7, 21.710 weeks since PCR-confirmed diagnosis, peptide-pulsed C1R-A2402
[9] = convalescent donor C8, 47.860 weeks since PCR-confirmed diagnosis, peptide-pulsed C1R-A2402
[10] = convalescent donor C9, 21.860 weeks since PCR-confirmed diagnosis, peptide-pulsed C1R-A2402
[11] = convalescent donor C10, 24.570 weeks since PCR-confirmed diagnosis, peptide-pulsed C1R-A2402
[12] = convalescent donor C11, 24.290 weeks since PCR-confirmed diagnosis, peptide-pulsed C1R-A2402
[13] = vaccinated donor V1, 19.000 weeks since 2nd dose, C1R-A2402 pre-pulsed with 1 μM peptide
[14] = vaccinated donor V2, 9.570 weeks since 2nd dose, C1R-A2402 pre-pulsed with 1 μM peptide
[15] = vaccinated donor V4, 10.430 weeks since 2nd dose, C1R-A2402 pre-pulsed with 1 μM peptide
[16] = vaccinated donor V5, 10.570 weeks since 2nd dose, C1R-A2402 pre-pulsed with 1 μM peptide
[17] = vaccinated donor V6, 9.570 weeks since 2nd dose, C1R-A2402 pre-pulsed with 1 μM peptide
[18] = vaccinated donor V7, 10.140 weeks since 2nd dose, C1R-A2402 pre-pulsed with 1 μM peptide
[19] = vaccinated donor V8, 9.860 weeks since 2nd dose, C1R-A2402 pre-pulsed with 1 μM peptide
[20] = vaccinated donor V9, 20.570 weeks since 2nd dose, C1R-A2402 pre-pulsed with 1 μM peptide
[21] = vaccinated donor V10, 2.000 weeks since 2nd dose, C1R-A2402 pre-pulsed with 1 μM peptide
[22] = vaccinated donor V11, 1.430 weeks since 2nd dose, C1R-A2402 pre-pulsed with 1 μM peptide
[23] = vaccinated donor V12, 1.000 weeks since 2nd dose, C1R-A2402 pre-pulsed with 1 μM peptide
[24] = vaccinated donor V13, 9.000 weeks since 2nd dose, C1R-A2402 pre-pulsed with 1 μM peptide
[25] = vaccinated donor V14, 2.000 weeks since 2nd dose, C1R-A2402 pre-pulsed with 1 μM peptide
[26] = vaccinated donor V15, 6.860 weeks since 2nd dose, C1R-A2402 pre-pulsed with 1 μM peptide
[27] = vaccinated donor V16, 8.860 weeks since 2nd dose, C1R-A2402 pre-pulsed with 1 μM peptide
[28] = vaccinated donor V17, 4.140 weeks since 2nd dose, C1R-A2402 pre-pulsed with 1 μM peptide
[29] = Suppl. Fig. 3b (for Fig. 4a, 4b), peptide(-) 14.8, 26 °C (Maximum) 32.7
[30] = vaccinated donor V3, 8.860 weeks since 2nd dose, C1R-A2402 pre-pulsed with 1 μM peptide

Sequence | IFNg-producing cells among CD8 T cells (%) [1, 3] [%] | IFNg-producing cells among CD8 T cells (%) [1, 4] [%] | IFNg-producing cells among CD8 T cells (%) [1, 5] [%] | IFNg-producing cells among CD8 T cells (%) [1, 6] [%] | IFNg-producing cells among CD8 T cells (%) [1, 7] [%] | IFNg-producing cells among CD8 T cells (%) [1, 8] [%] | IFNg-producing cells among CD8 T cells (%) [1, 9] [%] | IFNg-producing cells among CD8 T cells (%) [1, 10] [%] | IFNg-producing cells among CD8 T cells (%) [1, 11] [%] | IFNg-producing cells among CD8 T cells (%) [1, 12] [%] | IFNg-producing cells among CD8 T cells (%) [1, 13] [%] | IFNg-producing cells among CD8 T cells (%) [1, 14] [%] | IFNg-producing cells among CD8 T cells (%) [1, 15] [%] | IFNg-producing cells among CD8 T cells (%) [1, 16] [%] | IFNg-producing cells among CD8 T cells (%) [1, 17] [%] | IFNg-producing cells among CD8 T cells (%) [1, 18] [%] | IFNg-producing cells among CD8 T cells (%) [1, 19] [%] | IFNg-producing cells among CD8 T cells (%) [1, 20] [%] | IFNg-producing cells among CD8 T cells (%) [1, 21] [%] | IFNg-producing cells among CD8 T cells (%) [1, 22] [%] | further results
RFDNPVLPF [S-RF9] | 0.770 | 0.050 | 1.110 | 0.000 | 0.000 | 0.000 | 0.000 | 0.000 | 0.000 | 0.000 | 0 | 0.296 | 0.333 | 0.15 | 0 | 0 | 0 | 0.769 | 0 | 0 | IFNg-producing cells among CD8 T cells (%) [1, 23]: 0.495%; IFNg-producing cells among CD8 T cells (%) [1, 24]: 0.076%; IFNg-producing cells among CD8 T cells (%) [1, 25]: 0.633%; IFNg-producing cells among CD8 T cells (%) [1, 26]: 0%; IFNg-producing cells among CD8 T cells (%) [1, 27]: 0.051%; IFNg-producing cells among CD8 T cells (%) [1, 28]: 0%; MFI, HLA-A2402 (APC), representative staining [2, 29]: 10.5; binding to HLA-A*24:02 (in words) ([2]; […], 16 peptides tested at 100 μM): did not bind
RVYSTGSNVF [S-RF10] | 1.394 | 0.025 | 0.000 | 0.000 | 0.000 | 0.000 | 0.600 | 0.000 | 0.420 | 0.000 | 0 | 0 | 0.522 | 1.045 | 0 | 0 | 0.127 | 0 | 0.033 | 0.679 | Freq of responder (%) [1]: 5.9%; Resp: number of responders (individuals with epitope-specific CD8+ T cells) [1]: one; IFNg-producing cells among CD8 T cells (%) [1, 30]: 0.19%; IFNg-producing cells among CD8 T cells (%) [1, 23]: 0.143%; IFNg-producing cells among CD8 T cells (%) [1, 24]: 0.275%; IFNg-producing cells among CD8 T cells (%) [1, 25]: 0.249%; IFNg-producing cells among CD8 T cells (%) [1, 26]: 0.267%; IFNg-producing cells among CD8 T cells (%) [1, 27]: 0.199%; IFNg-producing cells among CD8 T cells (%) [1, 28]: 0%; MFI, HLA-A2402 (APC), representative staining [2, 29]: 48.0
VFKNIDGYF [S-VF9] | 0.300 | 0.050 | 1.030 | 0.000 | 0.310 | 0.000 | 0.370 | 0.490 | 0.000 | 0.000 | 0 | 0 | 0.114 | 0.154 | 0 | 0.163 | 0 | 0 | 0 | 0 | IFNg-producing cells among CD8 T cells (%) [1, 30]: 0%; IFNg-producing cells among CD8 T cells (%) [1, 23]: 0.427%; IFNg-producing cells among CD8 T cells (%) [1, 24]: 0%; IFNg-producing cells among CD8 T cells (%) [1, 25]: 0.009%; IFNg-producing cells among CD8 T cells (%) [1, 26]: 0%; IFNg-producing cells among CD8 T cells (%) [1, 27]: 0.255%; IFNg-producing cells among CD8 T cells (%) [1, 28]: 0.147%; MFI, HLA-A2402 (APC), representative staining [2, 29]: 38.0
VFVSNGTHWF [S-VFF10] | 0.490 | 0.090 | 0.710 | 0.000 | 0.560 | 0.000 | 0.420 | 0.110 | 0.000 | 0.000 | 0 | 0 | 0.485 | 0.489 | 0 | 0 | 0 | 3.184 | 0 | 0 | Freq of responder (%) [1]: 5.9%; Resp: number of responders (individuals with epitope-specific CD8+ T cells) [1]: one; IFNg-producing cells among CD8 T cells (%) [1, 30]: 0%; IFNg-producing cells among CD8 T cells (%) [1, 23]: 0.283%; IFNg-producing cells among CD8 T cells (%) [1, 24]: 0.024%; IFNg-producing cells among CD8 T cells (%) [1, 25]: 0%; IFNg-producing cells among CD8 T cells (%) [1, 26]: 0.253%; IFNg-producing cells among CD8 T cells (%) [1, 27]: 0%; IFNg-producing cells among CD8 T cells (%) [1, 28]: 0%; MFI, HLA-A2402 (APC), representative staining [2, 29]: 22.3; MFI, HLA-A2402 (APC), representative staining ([2]; Suppl. Fig. 3c (for Fig. 4c), peptide(-) 11.7, 26 °C (Maximum) 28.9): 37.9
